Blank lines part the entries; values can stand above or below the molecule they belong to. The source made the active and inactive calls.
Tests used:
[1] = molecular target: Death-associated protein kinase 3 (Homo sapiens, UniProt O43293); assay type: functional;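 also: measured as one member of a kinome-wide profiling panel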
[2] = molecular target: Mitogen-activated protein kinase kinase kinase kinase 2 (Homo sapiens, UniProt Q12851); assay type: functional;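 also: measured as one member of a kinome-wide kinase panel, with MAP4K2 as the panel entry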
[3] = molecular target: Dual specificity mitogen-activated protein kinase kinase 1 (Homo sapiens, UniProt Q02750); test: Navigating the Kinome. Panel member name: MAP2K1; assay type: functional
[4] = molecular target: Calcium/calmodulin-dependent protein kinase type II subunit alpha (Homo sapiens, UniProt Q9UQM7); test: Navigating the Kinome. Panel member name: CAMK2A; assay type: functional
Aurora kinase A = Aurora kinase A (Homo sapiens, UniProt O14965); assay type: functional;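 also: value from the Navigating the Kinome kinase panel profiling, panel entry STK6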
[5] = molecular target: Vascular endothelial growth factor receptor 2 (Homo sapiens, UniProt P35968); assay type: functional
[6] = molecular target: Macrophage-stimulating protein receptor (Homo sapiens, UniProt Q04912); test: Navigating the Kinome. Panel member name: MST1R; assay type: functional
[7] = molecular target: Serine/threonine-protein kinase TAO1 (Homo sapiens, UniProt Q7L7X3); assay type: functional
[8] = molecular target: Leucine-rich repeat serine/threonine-protein kinase 2 (Homo sapiens, UniProt Q5S007); assay type: functional;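 also: value from a broad kinome-wide panel profiling study in which LRRK2 was one of the kinases tested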
[9] = molecular target: Tyrosine-protein kinase receptor TYRO3 (Homo sapiens, UniProt Q06418); assay type: functional;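 also: TYRO3 value obtained as one member of a kinome-wide profiling panel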
[10] = molecular target: cAMP-dependent protein kinase catalytic subunit PRKX (Homo sapiens, UniProt P51817); assay type: functional
Activated CDC42 kinase 1 = Activated CDC42 kinase 1 (Homo sapiens, UniProt Q07912); test: Navigating the Kinome. Panel member name: ACK1; assay type: functional
[11] = molecular target: Tyrosine-protein kinase BTK (Homo sapiens, UniProt Q06187); assay type: functional
[12] = molecular target: cAMP-dependent protein kinase catalytic subunit alpha (Homo sapiens, UniProt P17612); assay type: functional
[13] = molecular target: Tyrosine-protein kinase ABL1 (Homo sapiens, UniProt P00519); assay type: functional
[14] = molecular target: Dual specificity tyrosine-phosphorylation-regulated kinase 1B (Homo sapiens, UniProt Q9Y463); test: Navigating the Kinome. Panel member name: DYRK1B; assay type: functional
[15] = molecular target: Serine/threonine-protein kinase D3 (Homo sapiens, UniProt O94806); assay type: functional;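 also: determined within a kinase panel screen, with PRKCN as the panel member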
[16] = molecular target: Platelet-derived growth factor receptor alpha (Homo sapiens, UniProt P16234); test: Navigating the Kinome. Panel member name: PDGFRA; assay type: functional
[17] = molecular target: Serine/threonine-protein kinase N2 (Homo sapiens, UniProt Q16513); assay type: functional
[18] = molecular target: Tyrosine-protein kinase Lck (Homo sapiens, UniProt P06239); assay type: functional;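 also: lck was assayed as one member of a kinase panel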
[19] = molecular target: Tyrosine-protein kinase JAK2 (Homo sapiens, UniProt O60674); assay type: functional;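 also: JAK2 tested as one member of a kinase panel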
Sequence of Tyrosine-protein kinase JAK2 (O60674 whole entry): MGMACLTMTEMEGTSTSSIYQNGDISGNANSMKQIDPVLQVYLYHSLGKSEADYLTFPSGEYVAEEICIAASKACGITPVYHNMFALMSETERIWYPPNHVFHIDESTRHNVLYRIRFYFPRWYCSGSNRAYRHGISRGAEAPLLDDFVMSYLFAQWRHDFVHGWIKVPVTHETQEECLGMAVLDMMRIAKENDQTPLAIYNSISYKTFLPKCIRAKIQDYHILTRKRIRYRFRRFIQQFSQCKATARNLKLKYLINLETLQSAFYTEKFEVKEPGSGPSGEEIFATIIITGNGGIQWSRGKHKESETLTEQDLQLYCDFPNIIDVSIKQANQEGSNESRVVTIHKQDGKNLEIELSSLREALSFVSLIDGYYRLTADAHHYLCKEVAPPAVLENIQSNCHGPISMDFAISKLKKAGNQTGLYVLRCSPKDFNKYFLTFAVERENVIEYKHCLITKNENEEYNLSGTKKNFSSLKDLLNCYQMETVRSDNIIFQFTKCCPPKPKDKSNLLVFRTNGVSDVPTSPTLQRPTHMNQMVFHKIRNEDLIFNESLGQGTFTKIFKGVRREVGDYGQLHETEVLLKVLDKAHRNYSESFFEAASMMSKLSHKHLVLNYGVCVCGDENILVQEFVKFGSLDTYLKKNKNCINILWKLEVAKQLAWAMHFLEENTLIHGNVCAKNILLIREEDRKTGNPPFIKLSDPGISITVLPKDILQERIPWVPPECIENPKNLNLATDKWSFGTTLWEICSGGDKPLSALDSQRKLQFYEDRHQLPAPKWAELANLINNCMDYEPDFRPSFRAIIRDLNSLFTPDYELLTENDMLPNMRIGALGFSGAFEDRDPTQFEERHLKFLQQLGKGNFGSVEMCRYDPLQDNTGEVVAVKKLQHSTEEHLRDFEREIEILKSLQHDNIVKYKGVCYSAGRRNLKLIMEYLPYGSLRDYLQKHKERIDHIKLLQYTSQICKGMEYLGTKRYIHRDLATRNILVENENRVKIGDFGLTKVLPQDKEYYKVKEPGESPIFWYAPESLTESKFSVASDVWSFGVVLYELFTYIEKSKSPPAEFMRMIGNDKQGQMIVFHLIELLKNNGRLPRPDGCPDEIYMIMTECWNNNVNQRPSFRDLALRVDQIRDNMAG

[20] = molecular target: Rho-associated protein kinase 1 (Homo sapiens, UniProt Q13464); assay type: functional;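 also: measured within a broad kinome-wide panel profiling many kinases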
[21] = molecular target: Cyclin-dependent kinase 5 (Homo sapiens, UniProt Q00535); assay type: functional;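 also: CDK5 measured as one member of a kinase profiling panel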
[22] = molecular target: T1, Glycogen synthase kinase-3 beta (Homo sapiens, UniProt P49841); assay type: functional;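 also: value comes from a broad kinome profiling panel, with GSK3B as the panel member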
T1 sequence (P49841 whole entry): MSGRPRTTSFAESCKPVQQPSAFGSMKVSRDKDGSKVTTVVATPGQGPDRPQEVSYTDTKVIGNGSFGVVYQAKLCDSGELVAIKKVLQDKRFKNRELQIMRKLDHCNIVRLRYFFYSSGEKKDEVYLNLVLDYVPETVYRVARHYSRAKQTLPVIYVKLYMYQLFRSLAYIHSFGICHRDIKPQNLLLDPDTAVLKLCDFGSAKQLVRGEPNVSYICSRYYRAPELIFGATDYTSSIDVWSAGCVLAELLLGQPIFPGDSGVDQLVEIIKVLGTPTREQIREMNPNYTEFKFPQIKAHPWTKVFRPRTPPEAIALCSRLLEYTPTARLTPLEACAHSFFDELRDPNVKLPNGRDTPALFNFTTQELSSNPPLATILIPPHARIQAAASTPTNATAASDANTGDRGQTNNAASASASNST

[23] = molecular target: Cyclin-dependent kinase 9 (Homo sapiens, UniProt P50750); assay type: functional;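 also: value from the CDK9 entry of a kinome-spanning kinase panel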
Sequence of Cyclin-dependent kinase 9 (P50750 whole entry): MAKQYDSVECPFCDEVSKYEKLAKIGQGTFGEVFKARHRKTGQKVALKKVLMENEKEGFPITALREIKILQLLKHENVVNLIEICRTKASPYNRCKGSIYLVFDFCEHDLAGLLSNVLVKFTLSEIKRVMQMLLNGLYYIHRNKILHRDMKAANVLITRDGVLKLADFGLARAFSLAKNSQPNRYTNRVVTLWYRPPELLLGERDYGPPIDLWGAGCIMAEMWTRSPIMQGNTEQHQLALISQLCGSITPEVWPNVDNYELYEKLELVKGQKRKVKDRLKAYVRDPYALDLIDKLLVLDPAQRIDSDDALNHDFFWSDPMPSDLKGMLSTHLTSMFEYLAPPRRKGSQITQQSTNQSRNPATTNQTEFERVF

[24] = molecular target: Tyrosine-protein kinase Fyn (Homo sapiens, UniProt P06241); assay type: functional
[25] = molecular target: Protein kinase C theta type (Homo sapiens, UniProt Q04759); test: Navigating the Kinome. Panel member name: PRKCQ; assay type: functional
Activin receptor type-1 = Activin receptor type-1 (Homo sapiens, UniProt Q04771); test: Navigating the Kinome. Panel member name: ACVR1; assay type: functional
[26] = molecular target: Mitogen-activated protein kinase kinase kinase kinase 4 (Homo sapiens, UniProt O95819); assay type: functional
[27] = molecular target: Fibroblast growth factor receptor 1 (Homo sapiens, UniProt P11362); assay type: functional
Sequence of Fibroblast growth factor receptor 1 (P11362 whole entry): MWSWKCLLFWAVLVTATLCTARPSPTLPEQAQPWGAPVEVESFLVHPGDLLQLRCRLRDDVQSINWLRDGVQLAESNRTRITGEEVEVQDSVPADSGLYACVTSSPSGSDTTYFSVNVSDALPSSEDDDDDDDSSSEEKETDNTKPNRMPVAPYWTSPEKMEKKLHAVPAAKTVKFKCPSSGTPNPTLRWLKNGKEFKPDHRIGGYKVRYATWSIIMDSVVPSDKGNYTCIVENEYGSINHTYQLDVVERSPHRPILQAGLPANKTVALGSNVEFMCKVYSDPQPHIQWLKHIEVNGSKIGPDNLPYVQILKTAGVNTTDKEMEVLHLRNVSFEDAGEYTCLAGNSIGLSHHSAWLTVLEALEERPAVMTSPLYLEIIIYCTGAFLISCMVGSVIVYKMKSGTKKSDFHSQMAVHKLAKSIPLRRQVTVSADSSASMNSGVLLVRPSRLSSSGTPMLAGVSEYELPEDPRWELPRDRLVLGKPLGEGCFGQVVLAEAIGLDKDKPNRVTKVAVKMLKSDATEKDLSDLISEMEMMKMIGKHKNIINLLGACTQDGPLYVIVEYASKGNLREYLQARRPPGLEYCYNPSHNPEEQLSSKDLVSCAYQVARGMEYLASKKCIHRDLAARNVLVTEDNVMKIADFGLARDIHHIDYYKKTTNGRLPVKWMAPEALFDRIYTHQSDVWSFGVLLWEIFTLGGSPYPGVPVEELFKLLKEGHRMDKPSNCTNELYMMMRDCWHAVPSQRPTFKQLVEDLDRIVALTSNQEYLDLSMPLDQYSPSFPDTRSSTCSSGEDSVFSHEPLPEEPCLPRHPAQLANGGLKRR

[28] = molecular target: Dual specificity protein kinase CLK4 (Homo sapiens, UniProt Q9HAZ1); assay type: functional
[29] = molecular target: 5'-AMP-activated protein kinase catalytic subunit alpha-1 (Homo sapiens, UniProt Q13131); assay type: functional
[30] = molecular target: T2, Glycogen synthase kinase-3 alpha (Homo sapiens, UniProt P49840); assay type: functional;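 also: GSK3A result taken from a broad kinome-wide kinase panel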
T2 sequence (P49840 whole entry): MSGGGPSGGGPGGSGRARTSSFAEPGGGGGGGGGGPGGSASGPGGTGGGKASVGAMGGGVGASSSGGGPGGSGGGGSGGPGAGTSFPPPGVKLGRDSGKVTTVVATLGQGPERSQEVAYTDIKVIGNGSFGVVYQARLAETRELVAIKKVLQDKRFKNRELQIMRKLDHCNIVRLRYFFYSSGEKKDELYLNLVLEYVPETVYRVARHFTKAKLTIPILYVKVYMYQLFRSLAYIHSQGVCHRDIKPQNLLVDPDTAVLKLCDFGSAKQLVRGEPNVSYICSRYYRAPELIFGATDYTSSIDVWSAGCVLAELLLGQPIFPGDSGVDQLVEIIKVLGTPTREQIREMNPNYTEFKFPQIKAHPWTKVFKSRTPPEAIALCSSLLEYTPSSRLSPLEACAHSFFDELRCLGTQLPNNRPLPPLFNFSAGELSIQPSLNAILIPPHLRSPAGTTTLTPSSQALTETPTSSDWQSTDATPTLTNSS

[31] = molecular target: Proto-oncogene tyrosine-protein kinase receptor Ret (Homo sapiens, UniProt P07949); assay type: functional;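 also: measured within a kinome-wide profiling panel, RET as the panel member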
[32] = molecular target: Inhibitor of nuclear factor kappa-B kinase subunit epsilon (Homo sapiens, UniProt Q14164); test: Navigating the Kinome. Panel member name: IKBKE; assay type: functional
[33] = molecular target: Mitogen-activated protein kinase 8 (Homo sapiens, UniProt P45983); assay type: functional;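 also: value comes from one member of a kinome-wide kinase profiling panel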
Sequence of Mitogen-activated protein kinase 8 (P45983 whole entry): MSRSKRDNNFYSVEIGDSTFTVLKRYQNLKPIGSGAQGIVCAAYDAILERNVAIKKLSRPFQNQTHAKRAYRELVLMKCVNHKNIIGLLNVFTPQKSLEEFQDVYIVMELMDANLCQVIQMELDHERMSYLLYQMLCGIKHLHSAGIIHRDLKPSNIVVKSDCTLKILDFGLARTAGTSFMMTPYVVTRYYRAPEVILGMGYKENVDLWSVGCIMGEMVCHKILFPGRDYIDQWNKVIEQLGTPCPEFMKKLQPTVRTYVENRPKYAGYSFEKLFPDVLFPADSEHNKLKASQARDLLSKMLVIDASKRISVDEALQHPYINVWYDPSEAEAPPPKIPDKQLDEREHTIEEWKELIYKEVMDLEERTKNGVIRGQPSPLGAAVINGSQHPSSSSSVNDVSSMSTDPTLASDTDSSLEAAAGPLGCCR

[34] = molecular target: Macrophage colony-stimulating factor 1 receptor (Homo sapiens, UniProt P07333); assay type: functional;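 also: value comes from the Navigating the Kinome screening panel, CSF1R member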
[35] = molecular target: Serine/threonine-protein kinase TBK1 (Homo sapiens, UniProt Q9UHD2); test: Navigating the Kinome. Panel member name: TBK1; assay type: functional
[36] = molecular target: Vascular endothelial growth factor receptor 1 (Homo sapiens, UniProt P17948); assay type: functional;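 also: measured within a kinome-wide profiling panel, FLT1 as the panel member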
[37] = molecular target: Receptor-type tyrosine-protein kinase FLT3 (Homo sapiens, UniProt P36888); assay type: functional;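 also: FLT3 was tested as one member of a kinome-wide kinase panel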
Sequence of Receptor-type tyrosine-protein kinase FLT3 (P36888 whole entry): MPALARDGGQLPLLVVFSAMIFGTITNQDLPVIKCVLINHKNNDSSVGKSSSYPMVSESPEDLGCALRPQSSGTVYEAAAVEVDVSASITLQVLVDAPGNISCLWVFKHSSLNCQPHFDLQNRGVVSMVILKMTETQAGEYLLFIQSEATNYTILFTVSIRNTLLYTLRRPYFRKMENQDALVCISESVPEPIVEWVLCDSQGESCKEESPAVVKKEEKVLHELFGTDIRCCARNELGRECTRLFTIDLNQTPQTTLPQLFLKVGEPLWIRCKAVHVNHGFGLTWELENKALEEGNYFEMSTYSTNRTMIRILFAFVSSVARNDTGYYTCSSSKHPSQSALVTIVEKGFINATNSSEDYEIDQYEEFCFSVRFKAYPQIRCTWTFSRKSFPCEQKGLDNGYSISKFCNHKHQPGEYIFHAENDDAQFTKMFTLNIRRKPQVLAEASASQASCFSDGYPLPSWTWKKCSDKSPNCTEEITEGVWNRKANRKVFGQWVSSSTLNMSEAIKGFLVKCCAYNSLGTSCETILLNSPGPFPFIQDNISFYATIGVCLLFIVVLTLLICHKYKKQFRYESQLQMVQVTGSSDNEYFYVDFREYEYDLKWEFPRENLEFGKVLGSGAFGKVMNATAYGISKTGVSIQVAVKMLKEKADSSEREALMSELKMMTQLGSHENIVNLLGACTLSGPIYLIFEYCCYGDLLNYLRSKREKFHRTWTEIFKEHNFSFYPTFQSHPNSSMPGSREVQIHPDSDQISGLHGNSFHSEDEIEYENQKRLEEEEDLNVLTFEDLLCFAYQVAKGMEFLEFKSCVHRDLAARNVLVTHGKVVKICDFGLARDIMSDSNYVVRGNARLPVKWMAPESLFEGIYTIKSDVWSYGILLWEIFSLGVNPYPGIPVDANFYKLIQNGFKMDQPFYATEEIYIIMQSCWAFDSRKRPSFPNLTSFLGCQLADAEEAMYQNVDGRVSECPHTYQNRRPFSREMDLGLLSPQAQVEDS

[38] = molecular target: Serine/threonine-protein kinase PAK 4 (Homo sapiens, UniProt O96013); assay type: functional;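 also: value obtained within a kinome profiling panel in which PAK4 was one of the panel members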
[39] = molecular target: G protein-coupled receptor kinase 5 (Homo sapiens, UniProt P34947); test: Navigating the Kinome. Panel member name: GPRK5; assay type: functional
[40] = molecular target: Dual specificity protein kinase CLK2 (Homo sapiens, UniProt P49760); assay type: functional
[41] = molecular target: BDNF/NT-3 growth factors receptor (Homo sapiens, UniProt Q16620); assay type: functional;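 also: NTRK2 measured as one member of a broad kinome-wide kinase profiling panel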
[42] = molecular target: Leukocyte tyrosine kinase receptor (Homo sapiens, UniProt P29376); test: Navigating the Kinome. Panel member name: LTK; assay type: functional
[43] = molecular target: Cyclin-dependent kinase 7 (Homo sapiens, UniProt P50613); assay type: functional;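 also: value comes from a kinome-wide kinase profiling panel in which CDK7 is one member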
[44] = molecular target: Insulin-like growth factor 1 receptor (Homo sapiens, UniProt P08069); test: Navigating the Kinome. Panel member name: IGF1R; assay type: functional
[45] = molecular target: Dual specificity tyrosine-phosphorylation-regulated kinase 1A (Homo sapiens, UniProt Q13627); assay type: functional;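 also: measured against DYRK1A as one member of a broad kinome profiling panel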
[46] = molecular target: Dual specificity mitogen-activated protein kinase kinase 2 (Homo sapiens, UniProt P36507); test: Navigating the Kinome. Panel member name: MAP2K2; assay type: functional
[47] = molecular target: Cyclin-dependent kinase 8 (Homo sapiens, UniProt P49336); test: Navigating the Kinome. Panel member name: CDK8; assay type: functional
[48] = molecular target: Ribosomal protein S6 kinase alpha-3 (Homo sapiens, UniProt P51812); assay type: functional;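 also: measured within a kinome-wide profiling panel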
[49] = molecular target: ALK tyrosine kinase receptor (Homo sapiens, UniProt Q9UM73); assay type: functional;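 also: ALK tested as one member of a kinase panel screen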
[50] = molecular target: Serine/threonine-protein kinase pim-1 (Homo sapiens, UniProt P11309); assay type: functional
[51] = molecular target: Mitogen-activated protein kinase 14 (Homo sapiens, UniProt Q16539); assay type: functional;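 also: part of a kinome-wide panel, MAPK14 entry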
Sequence of Mitogen-activated protein kinase 14 (Q16539 whole entry): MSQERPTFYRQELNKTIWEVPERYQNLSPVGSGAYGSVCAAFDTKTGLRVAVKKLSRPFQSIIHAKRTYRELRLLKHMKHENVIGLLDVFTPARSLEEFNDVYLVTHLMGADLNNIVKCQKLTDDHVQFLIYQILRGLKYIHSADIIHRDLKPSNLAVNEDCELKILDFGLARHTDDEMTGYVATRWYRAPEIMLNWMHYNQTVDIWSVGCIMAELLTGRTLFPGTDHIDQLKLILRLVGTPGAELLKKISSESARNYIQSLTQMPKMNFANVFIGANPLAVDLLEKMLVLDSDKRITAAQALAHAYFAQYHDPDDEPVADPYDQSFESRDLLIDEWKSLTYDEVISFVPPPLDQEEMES

[52] = molecular target: Tyrosine-protein kinase JAK3 (Homo sapiens, UniProt P52333); assay type: functional
[53] = molecular target: Mitogen-activated protein kinase 9 (Homo sapiens, UniProt P45984); assay type: functional;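 also: value from a kinome panel profiling assay, MAPK9 panel entry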
[54] = molecular target: T1, Glycogen synthase kinase-3 beta; test: inhibition of human GSK3B activity – biochemical, microfluidics, dry powder samples, set 2, dose response (AID 623989); assay type: functional
[55] = molecular target: T2, Glycogen synthase kinase-3 alpha; test: GSK3A enzyme blockers, homolog specificity check – biochemical, microfluidics, dry powder samples, set 2, selectivity assay for GSK3beta inhibitor project, dose response (AID 623978); assay type: functional
[56] = molecular target: FAD-linked sulfhydryl oxidase ALR (Homo sapiens, UniProt P55789); test: ALR-catalysed DTT oxidation blockers – biochemical, H2O2 detection, luminescence, cherry-pick, dose response (AID 493248)
[57] = molecular target: Cyclin-dependent kinase 5/CDK5 activator 1 (Homo sapiens, UniProt Q00535); test: inhibitors of human CDK5 activity – biochemical, microfluidic mobility shift, dry powder, set 2, selectivity assay for GSK3beta inhibitor project, dose response (AID 623979); assay type: functional
[58] = molecular target: T3, Apoptotic protease-activating factor 1 (Homo sapiens, UniProt O14727); test: SAR analysis of small molecule Activators of Apaf-1 in a Fluorescent assay - set 2.; assay type: functional; details: read-out: EC50_Mean
T3 sequence (O14727 whole entry): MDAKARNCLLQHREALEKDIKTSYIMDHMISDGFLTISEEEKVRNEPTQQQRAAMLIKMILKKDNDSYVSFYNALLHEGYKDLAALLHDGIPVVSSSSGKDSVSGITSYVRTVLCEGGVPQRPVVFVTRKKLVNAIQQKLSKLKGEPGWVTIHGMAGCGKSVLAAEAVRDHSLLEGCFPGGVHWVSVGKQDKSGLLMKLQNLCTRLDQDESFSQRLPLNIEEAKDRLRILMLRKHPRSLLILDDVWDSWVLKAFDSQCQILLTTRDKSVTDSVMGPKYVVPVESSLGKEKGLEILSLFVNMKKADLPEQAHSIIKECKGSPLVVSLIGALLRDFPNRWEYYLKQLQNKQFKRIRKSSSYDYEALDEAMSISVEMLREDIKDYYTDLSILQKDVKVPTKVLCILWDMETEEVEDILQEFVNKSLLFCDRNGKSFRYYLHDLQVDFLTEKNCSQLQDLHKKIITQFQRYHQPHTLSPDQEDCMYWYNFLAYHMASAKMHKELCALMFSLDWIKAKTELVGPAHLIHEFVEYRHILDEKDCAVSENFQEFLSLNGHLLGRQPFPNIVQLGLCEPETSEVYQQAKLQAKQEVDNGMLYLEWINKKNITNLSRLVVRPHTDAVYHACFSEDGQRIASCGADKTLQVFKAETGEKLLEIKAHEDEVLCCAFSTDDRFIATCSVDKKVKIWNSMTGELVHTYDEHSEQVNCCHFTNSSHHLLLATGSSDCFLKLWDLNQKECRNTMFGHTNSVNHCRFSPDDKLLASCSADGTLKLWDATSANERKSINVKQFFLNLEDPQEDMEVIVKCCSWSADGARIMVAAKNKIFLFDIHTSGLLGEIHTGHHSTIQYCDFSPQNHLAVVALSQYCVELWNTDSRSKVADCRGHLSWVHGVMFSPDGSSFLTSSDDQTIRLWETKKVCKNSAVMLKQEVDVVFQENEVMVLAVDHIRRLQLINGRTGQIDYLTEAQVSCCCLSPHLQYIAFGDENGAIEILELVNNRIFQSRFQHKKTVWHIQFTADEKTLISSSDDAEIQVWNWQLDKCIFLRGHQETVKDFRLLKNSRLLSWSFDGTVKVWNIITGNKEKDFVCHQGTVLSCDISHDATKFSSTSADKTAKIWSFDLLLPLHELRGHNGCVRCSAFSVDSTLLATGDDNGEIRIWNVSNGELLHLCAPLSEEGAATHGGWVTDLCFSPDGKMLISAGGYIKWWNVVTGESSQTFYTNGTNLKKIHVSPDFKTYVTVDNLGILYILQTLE

[59] = SAR analysis of small molecule activators of Apaf-1 using a LZ-Caspase-9/Caspase-3 Fluorescent Selectivity assay - Set 2.; assay type: functional; details: read-out: EC50_Mean

- Ki [2]: > 2.51 µM (inactive)
- Ki [3]: > 3.16 µM (inactive)
- Ki [4]: > 7.94 µM (inactive)
- Ki (Aurora kinase A): > 1.58 µM (inactive)
- Ki [5]: 1.26 µM (active)
- Ki [6]: > 2.51 µM (inactive)
- Ki [7]: > 6.31 µM (inactive)
- Ki [8]: 0.316 µM (active)
- Ki [9]: > 3.16 µM (inactive)
- Ki [10]: 0.316 µM (active)
- Ki (Activated CDC42 kinase 1): > 3.16 µM (inactive)
- Ki [11]: > 6.31 µM (inactive)
- Ki [12]: 0.501 µM (active)
- Ki [13]: > 3.98 µM (inactive)
- Ki [14]: > 2.51 µM (inactive)
- Ki [15]: > 3.98 µM (inactive)
- Ki [16]: > 2.51 µM (inactive)
- Ki [17]: 0.316 µM (active)
- Ki [18]: 2.51 µM (active)
- Ki [19]: 0.000794 µM (active)
- Ki [20]: 0.0251 µM (active)
- Ki [21]: > 3.16 µM (inactive)
- Ki [22]: > 3.98 µM (inactive)
- Ki [23]: > 1.58 µM (inactive)
- Ki [24]: > 6.31 µM (inactive)
- Ki [25]: > 1.26 µM (inactive)
- Ki (Activin receptor type-1): > 3.98 µM (inactive)
- Ki [26]: > 5.01 µM (inactive)
- Ki [27]: > 3.98 µM (inactive)
- Ki [28]: > 2.51 µM (inactive)
- Ki [29]: > 3.16 µM (inactive)
- Ki [30]: 2.51 µM (active)
- Ki [31]: 2.51 µM (active)
- Ki [32]: > 3.16 µM (inactive)
- Ki [33]: > 2.51 µM (inactive)
- Ki [34]: > 2.51 µM (inactive)
- Ki [35]: > 3.16 µM (inactive)
- Ki [36]: > 3.98 µM (inactive)
- Ki [37]: > 3.16 µM (inactive)
- Ki [38]: > 5.01 µM (inactive)
- Ki [39]: > 3.98 µM (inactive)
- Ki [40]: > 3.98 µM (inactive)
- Ki [41]: > 3.98 µM (inactive)
- Ki [42]: 1 µM (active)
- Ki [43]: > 3.98 µM (inactive)
- Ki [44]: > 2.51 µM (inactive)
- Ki [45]: > 2 µM (inactive)
- Ki [46]: > 3.98 µM (inactive)
- Ki [47]: > 3.16 µM (inactive)
- Ki [48]: > 3.98 µM (inactive)
- Ki [49]: > 6.31 µM (inactive)
- Ki [50]: > 6.31 µM (inactive)
- Ki [51]: > 3.98 µM (inactive)
- Ki [52]: 0.00316 µM (active)
- Ki [53]: > 3.98 µM (inactive)
SMILES: CC1CCN(C(=O)CC#N)CC1c1ncc2cnc3[nH]ccc3n12 (configuration not stated)
- Ki [1]: > 5.01 µM (inactive)

- AC50 [54]: 1.46 µM (active)
- AC50 [55]: 5.47 µM (active)
- AC50 [56]: 2.51 µM (active)
- AC50 [57]: 3.7 µM (active)
SMILES: COc1ccc(S(=O)(=O)Nc2c(C(=O)O)[nH]c3ccc(OC)cc23)cc1

- EC50 [58]: 42.6 µM (active)
- EC50 [59]: > 100 µM (inactive)
SMILES: CC(Cn1nnc2ccccc21)C(=O)O (configuration not stated)
